Test results taken from US20230257396A1, “MACROCYCLES AND THEIR USE” (BLOSSOMHILL THERAPEUTICS, INC., priority 2020, published 2023).
Where a chain is given by its changes, count along the chain named.

What was measured:
Assay in all cases: KINOMEscan kinase binding assay (Eurofins/DiscoveRx), % Ctrl
Conditions in all cases: 1 μM
kinases [1] = target: T1, kinases (Homo sapiens, UniProt P00533, L858R/T790M)
T1 construct: purchased Eurofins/DiscoveRx; host or cells: E. coli BL21-derived host (T7 phage display) for most kinases; HEK-293 for the rest
Method: (§1) Kinase binding assays were performed at Eurofins/DiscoveRx using the general KINOMEscan Protocol (Fabian, M. A. et al., “A small molecule-kinase interaction map for clinical kinase inhibitors,” Nat. Biotechnol. 2005, 23(3):329-36). For most assays, kinase-tagged T7 phage strains were prepared in an E. coli host derived from the BL21 strain. E. coli were grown to log-phase and infected with T7 phage and incubated with shaking at 32° C. until lysis. The lysates were centrifuged and filtered to remove cell debris. The remaining kinases were produced in HEK-293 cells and subsequently tagged with DNA for qPCR detection. Streptavidin-coated magnetic beads were treated with biotinylated small molecule ligands for 30 minutes at room temperature to generate affinity resins for kinase assays. The liganded beads were blocked with excess biotin and washed with blocking buffer (SeaBlock (Pierce), 1% BSA, 0.05% Tween 20, 1 mM DTT) to remove unbound ligand and to reduce nonspecific binding. Binding reactions were assembled by combining kinases, liganded affinity beads, and test compounds in 1×binding buffer (20% SeaBlock, 0.17×PBS, 0.05% Tween 20, 6 mM DTT). All reactions were performed in polystyrene 96-well plates in a final volume of 0.135 mL. The assay plates were incubated at room temperature with shaking for 1 hour and the affinity beads were washed with washbuffer (1×PBS, 0.05% Tween 20). The beads were then re-suspended in elution buffer (1× PBS, 0.05% Tween 20, 0.5 μM non-biotinylated affinity ligand) and incubated at room temperature with shaking for 30 minutes. The kinase concentration in the eluates was measured by qPCR. Results for compounds tested in this assay at a given concentration are reported as “% Ctrl”, where lower numbers indicate stronger binding in the matrix.
(§2) (test compound signal-positive control signal)/(negative control signal-positive control signal) X100

kinases [2] = target: T2, kinases (Homo sapiens, UniProt P10721, T670I/V559D)
T2 construct: purchased Eurofins/DiscoveRx; host or cells: E. coli BL21-derived host (T7 phage display) for most kinases; HEK-293 for the rest
T2 sequence (P10721 26-976 V559D/T670I): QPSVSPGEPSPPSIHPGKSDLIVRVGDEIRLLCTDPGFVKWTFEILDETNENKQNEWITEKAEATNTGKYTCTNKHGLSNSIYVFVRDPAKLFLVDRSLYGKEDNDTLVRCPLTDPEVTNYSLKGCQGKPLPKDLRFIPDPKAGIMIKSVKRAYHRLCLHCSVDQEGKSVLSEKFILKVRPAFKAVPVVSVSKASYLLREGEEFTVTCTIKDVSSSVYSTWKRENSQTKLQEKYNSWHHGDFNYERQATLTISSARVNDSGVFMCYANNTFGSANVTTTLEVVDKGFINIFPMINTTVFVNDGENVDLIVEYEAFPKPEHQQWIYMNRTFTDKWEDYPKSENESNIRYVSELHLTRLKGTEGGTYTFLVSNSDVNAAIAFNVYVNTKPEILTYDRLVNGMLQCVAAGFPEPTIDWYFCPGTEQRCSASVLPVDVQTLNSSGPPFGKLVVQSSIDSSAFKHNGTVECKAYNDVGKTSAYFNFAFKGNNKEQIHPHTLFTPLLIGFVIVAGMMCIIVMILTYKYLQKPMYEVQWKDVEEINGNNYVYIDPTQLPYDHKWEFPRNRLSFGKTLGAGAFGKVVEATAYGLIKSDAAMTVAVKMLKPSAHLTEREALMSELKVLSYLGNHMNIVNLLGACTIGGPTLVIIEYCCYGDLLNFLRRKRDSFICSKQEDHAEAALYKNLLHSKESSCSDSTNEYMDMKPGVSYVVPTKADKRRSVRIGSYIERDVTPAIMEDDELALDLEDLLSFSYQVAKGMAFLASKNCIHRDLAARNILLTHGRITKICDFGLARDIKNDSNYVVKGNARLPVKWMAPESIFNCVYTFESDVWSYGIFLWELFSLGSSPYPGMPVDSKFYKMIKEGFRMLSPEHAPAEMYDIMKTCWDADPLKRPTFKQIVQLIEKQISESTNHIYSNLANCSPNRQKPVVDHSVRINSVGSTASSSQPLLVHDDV
Method: as §1, §2

kinases [3] = target: T3, kinases (Homo sapiens, UniProt P36888, D835Y)
T3 construct: purchased Eurofins/DiscoveRx; host or cells: E. coli BL21-derived host (T7 phage display) for most kinases; HEK-293 for the rest
T3 sequence (P36888 27-993 D835Y): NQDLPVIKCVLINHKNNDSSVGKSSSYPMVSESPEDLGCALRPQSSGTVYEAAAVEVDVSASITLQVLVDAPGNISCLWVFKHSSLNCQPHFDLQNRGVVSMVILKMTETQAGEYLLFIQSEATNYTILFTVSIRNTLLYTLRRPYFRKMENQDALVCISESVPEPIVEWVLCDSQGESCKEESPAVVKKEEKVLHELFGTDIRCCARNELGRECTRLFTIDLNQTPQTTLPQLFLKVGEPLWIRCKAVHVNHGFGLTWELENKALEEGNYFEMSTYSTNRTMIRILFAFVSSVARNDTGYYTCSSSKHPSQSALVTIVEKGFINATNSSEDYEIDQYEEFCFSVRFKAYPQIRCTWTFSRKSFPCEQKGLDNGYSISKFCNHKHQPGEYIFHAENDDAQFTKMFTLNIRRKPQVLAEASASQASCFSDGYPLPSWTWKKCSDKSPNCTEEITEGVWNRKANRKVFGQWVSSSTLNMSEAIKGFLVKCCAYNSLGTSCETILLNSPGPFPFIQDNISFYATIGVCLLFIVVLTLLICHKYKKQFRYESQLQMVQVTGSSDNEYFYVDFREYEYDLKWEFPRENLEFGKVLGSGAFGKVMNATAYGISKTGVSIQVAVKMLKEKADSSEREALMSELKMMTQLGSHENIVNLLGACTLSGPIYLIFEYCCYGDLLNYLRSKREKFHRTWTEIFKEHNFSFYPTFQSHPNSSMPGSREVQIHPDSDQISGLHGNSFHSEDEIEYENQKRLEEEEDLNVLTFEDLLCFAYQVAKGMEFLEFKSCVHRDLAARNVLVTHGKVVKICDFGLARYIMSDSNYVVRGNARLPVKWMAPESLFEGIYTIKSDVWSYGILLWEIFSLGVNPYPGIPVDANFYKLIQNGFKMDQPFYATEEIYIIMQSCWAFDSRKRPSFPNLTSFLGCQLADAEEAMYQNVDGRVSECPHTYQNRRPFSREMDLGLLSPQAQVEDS
Method: as §1, §2

kinases [4] = target: T4, kinases (Homo sapiens, UniProt P36888, K663Q)
T4 construct: purchased Eurofins/DiscoveRx; host or cells: E. coli BL21-derived host (T7 phage display) for most kinases; HEK-293 for the rest
T4 sequence (P36888 27-993 K663Q): T3 sequence (P36888 27-993 D835Y) with K637Q, Y809D
Method: as §1, §2

kinases [5] = target: T5, kinases (Homo sapiens, UniProt P00519, M351T)
T5 construct: purchased Eurofins/DiscoveRx; host or cells: E. coli BL21-derived host (T7 phage display) for most kinases; HEK-293 for the rest
Method: as §1, §2

kinases [6] = target: T6, kinases (Homo sapiens, UniProt P07949)
T6 construct: purchased Eurofins/DiscoveRx; host or cells: E. coli BL21-derived host (T7 phage display) for most kinases; HEK-293 for the rest
T6 sequence (P07949 29-1114): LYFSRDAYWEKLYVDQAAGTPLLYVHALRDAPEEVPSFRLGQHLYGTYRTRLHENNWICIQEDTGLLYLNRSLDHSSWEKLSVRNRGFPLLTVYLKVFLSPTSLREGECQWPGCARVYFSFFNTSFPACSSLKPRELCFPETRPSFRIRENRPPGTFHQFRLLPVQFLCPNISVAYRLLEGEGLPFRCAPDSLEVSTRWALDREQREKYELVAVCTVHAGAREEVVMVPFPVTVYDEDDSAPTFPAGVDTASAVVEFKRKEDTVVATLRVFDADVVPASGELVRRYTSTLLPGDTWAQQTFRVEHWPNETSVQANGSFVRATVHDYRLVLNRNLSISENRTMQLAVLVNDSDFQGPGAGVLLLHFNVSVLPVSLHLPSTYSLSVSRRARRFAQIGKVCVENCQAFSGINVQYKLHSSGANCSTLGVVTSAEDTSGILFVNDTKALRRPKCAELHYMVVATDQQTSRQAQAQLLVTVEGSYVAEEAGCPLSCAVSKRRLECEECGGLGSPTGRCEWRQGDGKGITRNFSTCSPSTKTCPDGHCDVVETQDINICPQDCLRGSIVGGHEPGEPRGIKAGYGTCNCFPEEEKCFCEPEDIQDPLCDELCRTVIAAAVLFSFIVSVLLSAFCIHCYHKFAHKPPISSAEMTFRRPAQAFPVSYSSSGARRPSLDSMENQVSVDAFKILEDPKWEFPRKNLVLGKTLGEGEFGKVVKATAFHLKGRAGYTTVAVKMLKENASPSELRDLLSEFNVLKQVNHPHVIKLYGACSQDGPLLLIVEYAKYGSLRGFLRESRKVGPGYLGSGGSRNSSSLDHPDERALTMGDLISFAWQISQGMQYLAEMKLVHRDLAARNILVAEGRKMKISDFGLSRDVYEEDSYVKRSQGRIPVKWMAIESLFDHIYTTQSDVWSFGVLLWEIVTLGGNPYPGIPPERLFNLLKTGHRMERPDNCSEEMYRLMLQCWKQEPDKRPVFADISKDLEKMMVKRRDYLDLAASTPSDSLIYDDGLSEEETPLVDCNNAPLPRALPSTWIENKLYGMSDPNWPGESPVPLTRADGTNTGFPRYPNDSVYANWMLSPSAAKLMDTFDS
Method: as §1, §2

| SMILES | % Ctrl, EGFR(L858R, T790M) (kinases [1]; target EGFR(L858R, T790M)) [% Ctrl] | % Ctrl, KIT(V559D, T670I) (kinases [2]; target KIT(V559D, T670I)) [% Ctrl] | % Ctrl, FLT3(D835Y) (kinases [3]; target FLT3(D835Y)) [% Ctrl] | % Ctrl, FLT3(K663Q) (kinases [4]; target FLT3(K663Q)) [% Ctrl] | % Ctrl, ABL1(M351T)-phosphorylated (kinases [5]; target ABL1(M351T)-phosphorylated) [% Ctrl] | % Ctrl, RET (kinases [6]; target RET) [% Ctrl] | % Ctrl, EGFR(L858R, T790M) (kinases [1]; EGFR(L858R, T790M)) [% Ctrl] | % Ctrl, KIT(V559D, T670I) (kinases [2]; KIT(V559D, T670I)) [% Ctrl] | % Ctrl, FLT3(D835Y) (kinases [3]; FLT3(D835Y)) [% Ctrl] | % Ctrl, FLT3(K663Q) (kinases [4]; FLT3(K663Q)) [% Ctrl] | % Ctrl, ABL1(M351T)-phosphorylated (kinases [5]; ABL1(M351T)-phosphorylated) [% Ctrl] | % Ctrl, RET (kinases [6]; RET) [% Ctrl] |
| --- | --- | --- | --- | --- | --- | --- | --- | --- | --- | --- | --- | --- |
| Cc1cc2c([nH]1)/C=C1\C(=O)Nc3cc(Cl)c(cc31)SCCOCCN(C)C2=O [Ex. 169, [16a(17)Z]-19-chloro-5-methyl-6,7,9,10-tetrahydro-1H-12,14-(ethanediylidene)dipyrrolo[3,4-g:2′,3′-j][1,4,13]oxathiazacyclopentadecine-4,16(5H,15H)-dione] | 37 | 1.6 | 1.6 | 2.7 | 0.1 | 0 |  |  |  |  |  |  |
| Cc1cc2c([nH]1)/C=C1\C(=O)Nc3cc(Cl)c(cc31)OCCO[C@@H](C(=O)N(C)C)CN(C)C2=O [Ex. 137, [7R,16a(17)Z]-19-chloro-N,N,2,5-tetramethyl-4,16-dioxo-4,5,6,7,9,10,15,16-octahydro-1H-12,14-(ethanediylidene)dipyrrolo[3,2-i:3′,4′-l][1,4,7]dioxazacyclopentadecine-7-carboxamide] |  |  |  |  |  |  | 93 | 27 | 14 | 69 | 51 | 8 |
| Cc1cc2c([nH]1)/C=C1\C(=O)Nc3cnc(cc31)-c1cnn(C)c1COCCNC2=O [Ex.123, [3a(4)Z]-6,14-dimethyl-10,11,13,14-tetrahydro-2H-17,1-(azenometheno)pyrazolo[4,3-m]dipyrrolo[3,2-f:3′,4′-i][1,4]oxazacyclopentadecine-3,8(5H,9H)-dione] |  |  |  |  |  |  | 92 | 97 | 72 | 77 | 100 | 91 |
| Cc1cc2c([nH]1)/C=C1\C(=O)Nc3ccc(cc31)O[C@@H](C)COCCN(C)C2=O [Ex. 92, [10S,16a(17)Z]-2,5,10-trimethyl-6,7,9,10-tetrahydro-1H-12,14-(ethanediylidene)dipyrrolo[3,2-i:3′,4′-l][1,4,7]dioxazacyclopentadecine-4,16(5H,15H)-dione] |  |  |  |  |  |  | 100 | 91 | 28 | 57 | 54 | 63 |

Further lines, results first:

| % Ctrl, EGFR(L858R, T790M) (kinases [1]; target EGFR(L858R, T790M)) [% Ctrl] | % Ctrl, KIT(V559D, T670I) (kinases [2]; target KIT(V559D, T670I)) [% Ctrl] | % Ctrl, FLT3(D835Y) (kinases [3]; target FLT3(D835Y)) [% Ctrl] | % Ctrl, FLT3(K663Q) (kinases [4]; target FLT3(K663Q)) [% Ctrl] | % Ctrl, ABL1(M351T)-phosphorylated (kinases [5]; target ABL1(M351T)-phosphorylated) [% Ctrl] | % Ctrl, RET (kinases [6]; target RET) [% Ctrl] | % Ctrl, EGFR(L858R, T790M) (kinases [1]; EGFR(L858R, T790M)) [% Ctrl] | % Ctrl, KIT(V559D, T670I) (kinases [2]; KIT(V559D, T670I)) [% Ctrl] | % Ctrl, FLT3(D835Y) (kinases [3]; FLT3(D835Y)) [% Ctrl] | % Ctrl, FLT3(K663Q) (kinases [4]; FLT3(K663Q)) [% Ctrl] | % Ctrl, ABL1(M351T)-phosphorylated (kinases [5]; ABL1(M351T)-phosphorylated) [% Ctrl] | % Ctrl, RET (kinases [6]; RET) [% Ctrl] | SMILES |
| --- | --- | --- | --- | --- | --- | --- | --- | --- | --- | --- | --- | --- |
|  |  |  |  |  |  | 2.3 | 62 | 1.4 | 5.3 | 0.2 | 2 | Cc1cc2c([nH]1)/C=C1\C(=O)Nc3ccc(cc31)-c1c(C)n[nH]c1CNCCN(C)C2=O [Ex. 127, [3a(4)Z]-6,9,16-trimethyl-9,10,11,12,13,14-hexahydro-1,17-(ethanediylidene)pyrazolo[4,3-m]dipyrrolo[3,2-f:3′,4′-i][1,4]diazacyclopentadecine-3,8(2H,5H)-dione] |
|  |  |  |  |  |  | 17 | 30 | 8.8 | 17 | 53 | 34 | Cc1cc2c([nH]1)/C=C1\C(=O)Nc3ccc(cc31)-c1ccnn1CCOCCN(C)C2=O [Ex. 41, [19a(20)Z]-2,5-dimethyl-6,7,9,10-tetrahydro-1H-15,17-(ethanediylidene)pyrazolo[1,5-d]dipyrrolo[3,4-h:2′,3′-k][1,4,14]oxadiazacyclohexadecine-4,19(5H,18H)-dione] |
|  |  |  |  |  |  | 0.15 | 3.6 | 1.4 | 4.2 | 0.05 | 0 | Cc1cc2c([nH]1)/C=C1\C(=O)Nc3ccc(cc31)-c1cnn(C)c1CN(C)CCN(C)C2=O [Ex. 126, [3a(4)Z]-6,9,12,14-tetramethyl-9,10,11,12,13,14-hexahydro-1,17-(ethanediylidene)pyrazolo[4,3-m]dipyrrolo[3,2-f:3′,4′-i][1,4]diazacyclopentadecine-3,8(2H,5H)-dione] |
